Assay results published in patent US12390470B2, “1-methylxanthine-based bioactive composition and method of use thereof” (Ingenious Ingredients, LP, priority 2021, dated 2025).

Legend:
[1] = system: participants; test: Systolic blood pressure, crossover vs caffeine; format: in vivo, human
Source text: All supplements were orally ingested with 8 fluid ounces of cold tap water.

[2] = system: male Swiss Albino mice; test: Cook's pole climbing test, scopolamine-induced amnesia; format: in vivo
Description: Behavioral studies were conducted in mice to examine the learning and memory ability by using Cook's pole and Passive shock avoidance test.
(§1) Twenty-four 8-week-old male Swiss Albino mice were housed in an animal room at a constant temperature (22±3° C.) and humidity (30%-70%) under a 12:12 h light-dark cycle with standard laboratory diet (Purina 5L79, Rat and Mouse 18% protein; PMI Nutrition International, Brentwood, MO, USA). Distilled water was provided ad libitum. All animal experiments were reviewed and approved by the Institutional Animal Ethical Committee (IAEC) of Radiant Research Services Pvt. Ltd (Bangalore, India). All research was conducted in accordance with the guidelines of the committee for the purpose of control and supervision of experiments on animals.
After one week of acclimation, the animals were randomly divided by body weight into three groups (n=8 per group in each test) for oral treatment once a day, at approximately same time each day (±1 hour), for 7 consecutive days: (1) vehicle control or (2) 1-methylxanthine or (3) 1-methylxanthine plus paraxanthine. The dose administered to the mice was calculated using US Food and Drug Administration for human equivalence doses (HED), assuming a human weight of 60 kg. The following HED was used in this study: 100 mg 1-methylxanthine (Ingenious Ingredients, L.P Lewisville, TX, USA; mouse dose: 20.5 mg/kg bw/day), or 100 mg 1-methylxanthine (Ingenious Ingredients, L.P Lewisville, TX, USA; mouse dose: 20.5 mg/kg bw/day) plus 100 mg paraxanthine (ENFINITY™, Ingenious Ingredients, L.P Lewisville, TX, USA; mouse dose: 20.5 mg/kg bw/day). 0.5% Carboxy Methyl Cellulose sodium was used as vehicle and the test item formulations were prepared daily. […] Food intake was monitored daily while water intake was ad libitum.
Mice were trained in such a way that the animal had to climb the pole (shock free zone) within 30 seconds to avoid a shock. […] At particular intervals, 20 trials were given for each animal and average of the shock avoidance and mistakes were recorded. […]

[3] = system: male Swiss Albino mice; test: Forced swim test; format: in vivo
Description: as §1
After one week of acclimation, the animals were randomly divided by body weight into three groups (n=8 per group in each test) for oral treatment once a day, at approximately same time each day (±1 hour), for 28 consecutive days: (1) vehicle control or (2) 1-methylxanthine or (3) 1-methylxanthine plus paraxanthine. The dose administered to the mice was calculated using US Food and Drug Administration for human equivalence doses (HED), assuming a human weight of 60 kg. The following HED was used in this study: 100 mg 1-methylxanthine (Ingenious Ingredients, L.P Lewisville, TX, USA; mouse dose: 20.5 mg/kg bw/day), or 100 mg 1-methylxanthine (Ingenious Ingredients, L.P Lewisville, TX, USA; mouse dose: 20.5 mg/kg bw/day) plus 100 mg paraxanthine (ENFINITY™, Ingenious Ingredients, L.P Lewisville, TX, USA; mouse dose: 20.5 mg/kg bw/day). 0.5% Carboxy Methyl Cellulose sodium was used as vehicle and the test item formulations were prepared daily. Dosing was conducted via oral gavage using disposable polypropylene syringes with sterilized stainless steel gavage tubes. Food intake was monitored daily while water intake was ad libitum.
During treatment period, training was accomplished on a swimming chamber at a moderate room temperature for 15 mins. The animals were adapted to this procedure daily 1 hr after dosing for 5 days in a week during the treatment period. On 28th day of respective treatment of all the animals were subjected to force swim test. Animals were forced to swim individually for 30 min in a glass jar of height 20 cm, diameter 10 cm, and filled with fresh water to a depth of 15 cm at room temperature. The parameters measured were first occurrence of climbing (the period the animal tries to climb the wall of the chamber), duration of immobility (the total time during which the animal is immobile) and total time spent in active swimming (the total duration during which the animal swims throughout the experimental period).

[4] = system: participant; test: Wakefulness by Visual Analog Scale; format: in vivo, human; conditions: Person two
Description: One participant ingested a non-energetic placebo (maltodextrin) followed by 200 mg dose of 1-methylxanthine (1-MX) one week later, orally with 8 fluid ounces of cold tap water. Wakefulness was measured by Visual Analog Scale (VAS) at baseline, 30, 60, 90, 120 and 180 minutes after ingestion.

Cn1c(=O)[nH]c2nc[nH]c2c1=O [1-methylxanthine, 1-Methyl-3H-purine-2,6-dione]
systolic blood pressure change from baseline ([1]; 200 mg oral): did not increase | systolic blood pressure reduced in comparison to CA ([1]; 200 mg oral): 6.1% | Systolic Blood Pressure MEAN (30-180) ([1]; Average): 117.2 mm Hg | Systolic Blood Pressure MEAN (30-180) ([1]; Person one): 123.6 mm Hg | Systolic Blood Pressure Mean Δ from 0 ([1]; Person one): −1.6 mm Hg | Systolic Blood Pressure Δ vs. CA ([1]; Person one): −6.4 mm Hg | Systolic Blood Pressure ([1]; Person one, 30 min): 116 mm Hg | Systolic Blood Pressure ([1]; Person one, 60 min): 136 mm Hg | Systolic Blood Pressure ([1]; Person one, 90 min): 108 mm Hg | Systolic Blood Pressure ([1]; Person one, 120 min): 116 mm Hg | Systolic Blood Pressure ([1]; Person one, 180 min): 142 mm Hg | Systolic Blood Pressure ([1]; Person one, time 0, 200 mg oral): 125 mm Hg | Systolic Blood Pressure MEAN (30-180) ([1]; Person two): 110.8 mm Hg | Systolic Blood Pressure Mean Δ from 0 ([1]; Person two): −2.2 mm Hg | Systolic Blood Pressure Δ vs. CA ([1]; Person two): −9.6 mm Hg | Systolic Blood Pressure ([1]; Person two, 30 min): 125 mm Hg | Systolic Blood Pressure ([1]; Person two, 60 min): 110 mm Hg | Systolic Blood Pressure ([1]; Person two, 90 min): 113 mm Hg | Systolic Blood Pressure ([1]; Person two, 120 min): 114 mm Hg | Systolic Blood Pressure ([1]; Person two, 180 min): 92 mm Hg | Systolic Blood Pressure ([1]; Person two, time 0, 200 mg oral): 113 mm Hg | Escape latency faster than control ([2]; Cook's pole): 14.9% | Escape latency, Cook's pole climbing test ([2]; mice, oral 7 days, scopolamine): 10.13 ± 0.83 s | Overall outcome on amnesia, memory and learning ([2]; summary of Cook's pole and passive shock avoidance tests): showed reversal of amnesia induced by scopolamine and improved memory and learning | Duration of immobility ([3]; 30 min forced swim, day 28): 9.74 ± 0.79 min | duration of mobility/active swimming ([3]; 30 min forced swim, day 28): 20.26 ± 0.79 min | number of climbing ([3]; forced swim, day 28): 6.7±1.16 | Duration of immobility lower compared to control ([3]; mouse, in vivo): 5.4% | duration of mobility/active swimming greater compared to control ([3]; mouse, in vivo): 2.8% | number of climbing improved compared to control ([3]; mouse, in vivo): 6.0% | Overall outcome on energy, endurance, mood ([3]; summary): showed improved energy and endurance, improved mood | Wakefulness (VAS) MEAN [4]: 69.0 | Wakefulness (Visual Analog Scale) ([4]; 30 min): 65 | Wakefulness (Visual Analog Scale) ([4]; 60 min): 65 | Wakefulness (Visual Analog Scale) ([4]; 90 min): 65 | Wakefulness (Visual Analog Scale) ([4]; 120 min): 75 | Wakefulness (Visual Analog Scale) ([4]; 180 min): 75 | Wakefulness (Visual Analog Scale) ([4]; time 0, 200 mg oral): 60
